Assay [1] concerns the target T1, Mtb alanine racemase (Alr) (Mycobacterium tuberculosis, UniProt P9WQA9).
In assay [2] the target is T1, Mtb alanine racemase (Alr). Put plainly: […]; Michaelis-Menten kinetics. It counts as biochemical.

The structures appear in SMILES notation. pIC50: −log10 of the molar value.

T1 sequence (P9WQA9 whole entry): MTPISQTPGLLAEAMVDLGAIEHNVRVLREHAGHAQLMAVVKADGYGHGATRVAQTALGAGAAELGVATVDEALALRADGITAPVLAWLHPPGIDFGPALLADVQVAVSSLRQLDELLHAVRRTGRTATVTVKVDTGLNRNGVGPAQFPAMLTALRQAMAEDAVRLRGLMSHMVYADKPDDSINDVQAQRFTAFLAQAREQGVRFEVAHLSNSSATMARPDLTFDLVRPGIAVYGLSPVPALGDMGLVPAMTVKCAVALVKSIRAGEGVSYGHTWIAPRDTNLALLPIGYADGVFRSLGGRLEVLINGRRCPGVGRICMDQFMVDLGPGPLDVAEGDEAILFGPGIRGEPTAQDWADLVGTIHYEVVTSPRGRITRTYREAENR

On to `C[C@@H](N)C(=O)O` [D-alanine], for which the “Michaelis-Menten kinetics of purified Alr in the coupled NADH fluorescence assay” value in assay [1] is “Varying the concentration of D-alanine yielded conventional Michaelis–Menten kinetics for Alr”.

Compound `CCOC(=O)[C@H](CCc1ccccc1)N[C@H]1CCc2ccccc2N(CC(=O)O)C1=O` [benazepril] had a pIC50 in assay [2] of 3.52.
